Experimental data: US12269825B2, “Organic compounds” (INTRA-CELLULAR THERAPIES, INC., priority 2014, dated 2025)

Assays:
[1] = Human plasma levels of Compounds Q through T after oral dosing with the Compound of Formula Q; format: in vivo; conditions: day 8 after 7 day dosing (120 mg, 4 doses/day) with the Compound of Formula Q
Protocol: (§1) In addition, the in-vivo metabolism of the Compound of Formula Q is studied after oral administration to rats, dogs and humans. Plasma levels after administration are determined in all three species for the Compounds of Formula Q through T. The results of the studies indicate that metabolism of the Compound of Formula Q is rapid, and that the N-demethyl compounds are highly polar and excreted rapidly. Results of human plasma studies on day 8 after 7 day dosing (120 mg, 4 doses/day) with the Compound of Formula Q are shown below: […]

CYP 3A4 = target: T1, CYP 3A4 (Homo sapiens, UniProt P08684); test: In-vitro metabolism using subcellular fractions and isolated hepatocytes: N-demethylation; format: in vitro ADME
T1 construct: from tissue
Source text: (§2) The in-vitro metabolism of the Compound of the Formula Q and its metabolites is studied using subcellular fractions and isolated hepatocytes. […] These two reductions are both catalyzed in the reverse direction (oxidation) by CYP 3A4.

ketone reductase = test: In-vitro metabolism using subcellular fractions and isolated hepatocytes: ketone reduction; format: in vitro ADME; conditions: forms Compounds of Formula S and T, respectively
Source text: as §2

[2] = In-vivo metabolism after oral administration; conditions: oral administration to rats, dogs and humans
Protocol: as §1

T1 sequence (P08684 whole entry, species assumed): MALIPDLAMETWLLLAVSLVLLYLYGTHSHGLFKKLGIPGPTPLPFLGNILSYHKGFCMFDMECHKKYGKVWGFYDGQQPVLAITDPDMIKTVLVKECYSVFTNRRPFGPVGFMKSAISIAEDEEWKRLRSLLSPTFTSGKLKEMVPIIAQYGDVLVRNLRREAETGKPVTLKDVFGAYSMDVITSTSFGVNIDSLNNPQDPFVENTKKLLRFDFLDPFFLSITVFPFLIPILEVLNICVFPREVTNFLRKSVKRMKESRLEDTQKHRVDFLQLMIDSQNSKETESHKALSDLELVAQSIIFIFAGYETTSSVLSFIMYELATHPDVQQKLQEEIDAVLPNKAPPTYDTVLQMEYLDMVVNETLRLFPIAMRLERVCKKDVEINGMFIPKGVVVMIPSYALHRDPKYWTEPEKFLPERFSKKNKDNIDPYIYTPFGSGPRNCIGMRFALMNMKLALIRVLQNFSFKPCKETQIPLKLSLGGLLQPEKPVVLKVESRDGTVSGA

AUC [1] [ng·h/mL]	Cmax [1] [ng/mL]	Tmax [1] [h]	rate of metabolism in vivo [2]	Structure (SMILES)	metabolic route: N-demethylation (CYP 3A4)	metabolic route: ketone reduction (ketone reductase)
347	78	2.5	rapid	CN1CCN2c3c(cccc31)[C@@H]1CN(CCCC(=O)c3ccc(F)cc3)CC[C@@H]12 [Compound Q, 4-((6bR,10aS)-3-methyl-2,3,6b,9,10,10a-hexahydro-1H-pyrido[3′,4′:4,5]pyrrolo[1,2,3-de]quinoxalin-8(7H)-yl)-1-(4-fluorophenyl)-1-butanone]	N-demethylated to the Compound of Formula R via the P450 cytochrome oxidase isoform 3A4 (CYP 3A4)	undergo ketone reduction via the enzyme ketone reductase
517	38	6	–	OC(CCCN1CC[C@H]2[C@@H](C1)c1cccc3c1N2CCN3)c1ccc(F)cc1 (stereo partly drawn) [Compound T]	–	–
906	79	3.5	–	CN1CCN2c3c(cccc31)[C@@H]1CN(CCCC(O)c3ccc(F)cc3)CC[C@@H]12 (stereo partly drawn) [Compound S]	–	–
170	37	2.5	–	O=C(CCCN1CC[C@H]2[C@@H](C1)c1cccc3c1N2CCN3)c1ccc(F)cc1 [Compound R]	–	–
